Results on eleven compounds are retold here after patent US7585976B2, “Hemiasterlin derivatives and uses thereof” (priority 2002, dated 2009).

The data set is described as follows: Screening profile of desired properties (growth inhibition, MDR, cytotoxicity, mouse serum stability, mitotic block reversibility, xenografts). The settings on record: properties (i)-(vii). As for the experimental part: In certain embodiments, compounds of the invention were tested for in vitro and in vivo activity. Screening methods included standard in vitro cell growth inhibition assays using a panel of human cancer cell lines, a U937 (ATCC accession number CRL 1593) mitotic block reversibility assay, mouse serum stability assay, MDR assay, and cytotoxicity assay. In certain other emdodiments, compounds of the invention were evaluated in tumor xenograft in vivo growth inhibition assays.
For the compound `CC(C)OC(=O)[C@@H]1CCCN1C(=O)[C@@H]1CCCN1C[C@H](C(C)C)N(C)C(=O)[C@@H](NC(=O)C1CCCCN1C)C(C)(C)C` (some centres unmarked) [ER-807904], the “desired properties (growth inhibition IC50, resistance ratio, cytotoxicity in non-dividing cells, mouse serum stability, reversibility ratio, tumor regression, T/C)” value was “exhibiting desired properties”.
The value for `CCC(C)N1CCCC[C@@H]1C(=O)N[C@H](C(=O)N(C)[C@H](/C=C(\C)C(=O)O)C(C)C)C(C)(C)C` (some centres unmarked) [ER-808368] was “exhibiting desired properties”.
In the case of `CN[C@H](C(=O)N[C@H](C(=O)N(C)[C@H](CN1CCC[C@H]1C(=O)N1CCC[C@H]1C(N)=O)C(C)C)C(C)(C)C)C(C)(C)c1ccccc1` [ER-807328], the “desired properties (growth inhibition IC50, resistance ratio, cytotoxicity in non-dividing cells, mouse serum stability, reversibility ratio, tumor regression, T/C)” value is “exhibiting desired properties”.
The value for `C/C(=C\[C@H](C(C)C)N(C)C(=O)[C@@H](NC(=O)[C@H]1CCCCN1C(C)C(C)C)C(C)(C)C)C(=O)O` (single isomer, unassigned) [ER-808662] was “exhibiting desired properties”; that for `CN[C@H](C(=O)N[C@H](C(=O)N(C)[C@H](/C=C(\C)C(=O)O)C(C)C)C(C)(C)C)C(C)(C)c1ccc(OCc2ccccc2)cc1` [ER-805913] was “exhibiting desired properties”.
The value for `CN[C@H](C(=O)N[C@H](C(=O)N(C)[C@H](CN(C)CC(=O)N1CCC[C@H]1C(=O)OC)C(C)C)C(C)(C)C)C(C)(C)c1ccccc1` [ER-806925] was “exhibiting desired properties”.
The value for `CCC(C)N1CCCC[C@@H]1C(=O)N[C@H](C(=O)N(C)[C@H](/C=C(\C)C(=O)O)C(C)C)C(C)C` (some centres unmarked) [ER-808824] was “exhibiting desired properties”.
Regarding `C/C(=C\[C@H](C(C)C)N(C)C(=O)[C@@H](NC(=O)[C@H]1CCCCN1C(C)C)C(C)(C)C)C(=O)O` [ER-807974], the “desired properties (growth inhibition IC50, resistance ratio, cytotoxicity in non-dividing cells, mouse serum stability, reversibility ratio, tumor regression, T/C)” value is reported as “exhibiting desired properties”.
The value for `CN[C@H](C(=O)N[C@H](C(=O)N(C)[C@H](/C=C(\C)C(=O)N1CCC[C@H]1C(=O)OC)C(C)C)C(C)(C)C)C(C)(C)c1ccccc1` [ER-805736] was “exhibiting desired properties”.
`C/C(=C\[C@H](C(C)C)N(C)C(=O)[C@@H](NC(=O)[C@H]1CCCCN1C)C(C)(C)C)C(=O)O` [ER-807102]: the “desired properties (growth inhibition IC50, resistance ratio, cytotoxicity in non-dividing cells, mouse serum stability, reversibility ratio, tumor regression, T/C)” value is listed as “exhibiting desired properties”.
With `CCC(CC)(NC)C(=O)N[C@H](C(=O)N(C)[C@H](/C=C(\C)C(=O)O)C(C)C)C(C)(C)C` [ER-807850] the entry was “exhibiting desired properties”.
